# System: mucin
# Assay: Bulk diffusion of FITC-peptides and fluorescein salt in mucin
# Assay type: in vitro ADME
# Details: DPBS/Dmucin
structure (smiles),measurement,value
"O=C([O-])c1ccccc1-c1c2ccc(=O)cc-2oc2cc([O-])ccc12.[Na+].[Na+] [Fluorescein salt, fluorescein sodium salt]",fold decreased diffusion in mucin compared to saline,3 fold
